Patent publication US12552787B2, “Quinazoline compound” (MEDSHINE DISCOVERY INC., priority 2020, dated 2026)
Read-outs that look alike come from different tables or passages of the source.

Columns and labels:
[1] = biological target: T1, KRAS(G12C) and SOS1 binding (Homo sapiens, UniProt Q07889); test: KRAS (G12C) and SOS1 binding assay (HTRF); settings: 25° C., 60 minutes, read-out: IC50, inhibitory activity on KRAS(G12C) and SOS1 binding
T1 sequence (Q07889 564-1049): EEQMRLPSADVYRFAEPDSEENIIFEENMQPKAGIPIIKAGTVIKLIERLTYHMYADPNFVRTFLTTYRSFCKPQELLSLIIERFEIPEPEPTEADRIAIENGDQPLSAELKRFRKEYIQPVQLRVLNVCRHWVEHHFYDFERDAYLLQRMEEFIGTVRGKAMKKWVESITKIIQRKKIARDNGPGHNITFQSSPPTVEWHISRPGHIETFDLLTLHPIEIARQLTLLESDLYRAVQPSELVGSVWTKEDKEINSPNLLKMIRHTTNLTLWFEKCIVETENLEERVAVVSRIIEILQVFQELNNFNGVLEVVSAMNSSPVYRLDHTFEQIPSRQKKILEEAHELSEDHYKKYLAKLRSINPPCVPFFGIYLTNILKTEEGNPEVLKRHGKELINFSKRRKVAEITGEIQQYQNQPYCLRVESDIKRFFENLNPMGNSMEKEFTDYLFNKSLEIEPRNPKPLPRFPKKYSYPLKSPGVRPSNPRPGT
Procedure: (§1) 1. Experimental Materials:
Multifunctional microplate reader Nivo5 was purchased from PerkinElmer.
2. Preparation of 1× Buffer:
The buffer for this experiment was the current preparation.
Preparation method: 4-Hydroxyethylpiperazineethanesulfonic acid (Hepes): 5 mM; sodium chloride (NaCl): 150 mM; ethylenediaminetetraacetic acid (EDTA): 10 mM; CO-630 (Igepal): 0.0025%; potassium fluoride (KF): 100 mM; dithiothreitol (DTT): 1 mM; bovine serum albumin (BSA): 0.05%.
• 1) The compounds to be tested were diluted 5-fold with DMSO to the eighth concentration using a row gun, that is, from 1 mM to 0.064 μM. • 2) Each gradient of the compounds to be tested were diluted with 1× buffer into a working solution of 2% DMSO, 5 μL/well was added to the corresponding well, corresponding to a concentration gradient of 20 μM to […], and a double-duplication experiment was set up. The working solution was centrifuged at 1000 rpm for 1 minute. • 3) A mixed working solution of KRAS (G12C) (200 nM) and Mab Anti GST-Eu cryptate (1 ng/μL) was prepared with 1× buffer, then the mixed working solution was incubated at 25° C. for 5 minutes, and 2.5 μL/well was added to the corresponding well. • 4) A mixed working solution of SOS1 (80 nM) and Mab Anti 6HIS-XL665 ([…]) was prepared with 1× buffer, 2.5 μL/well was added to the corresponding well; 2.5 μL of Mab Anti 6HIS-XL665 ([…]) diluent was added to the blank well (Blank), at this time the final concentration gradient of the compounds was 10 μM diluted to 0.64 nM, KRAS (G12C) ([…]), MAb Anti GST-Eu cryptate (0.25 ng/μL), SOS1 (20 nM), Mab Anti 6HIS-XL665 (2 g/μL), and the reaction system was placed at 25° C. for 60 minutes. A multi-label analyzer was used for reading HTRF after the reaction was completed. 4. Data Analysis:
Using the equation (Sample−Min)/(Max−Min)×100% to convert the raw data into inhibition rate, and the value of IC50 might be obtained by curve fitting with four parameters (obtained by “Log(inhibitor) vs. response-Variable slope” mode in GraphPad Prism). Table 1 provides the inhibitory activity of the compounds of the present disclosure on KRAS(G12C) and SOS1 binding.

[2] = Pharmacokinetic study in mice; assay type: in vivo; settings: mouse, plasma; for AUC(0-t): read-out: AUC0-24 h
Procedure: The purpose of this experiment is to evaluate the pharmacokinetic behavior of the compounds after a single intravenous injection or intragastric administration in mice. For intravenous injection, the compound was prepared as a clear solution of 0.2 mg/mL, vehicle: 5% DMSO/95% (10% hydroxypropyl-β-cyclodextrin) aqueous solution; for intragastric administration, the compound was prepared as a suspension of 0.3 mg/mL, vehicle: 5% DMSO/95% (10% hydroxypropyl-β-cyclodextrin) aqueous solution.
The concentrations of compounds in plasma were determined by high performance liquid chromatography-tandem mass spectrometry (LC-MS/MS). Retention time of compounds and internal standard (diclofenac), chromatogram acquisition and integration of chromatogram were processed using the software Analyst (Applied Biosystems), and statistics of the data were processed using the software Watson LIMS (Thermo Fisher Scientific) or Analyst (Applied Biosystems). The concentration of analytes in the sample was expressed in ng/mL, with 3 valid digits retained. All values expressed as percentages (for example, % deviation and % coefficient of variation, etc.) were retained to one decimal point. Each calibration curve contained at least 6 concentration levels. The calibration specimen should be prepared using a stock solution from a different source than the quality control sample. The deviation between the calculated concentration of the calibration specimen and the indicated value exceeds ±15.0% (the lower limit of quantification exceeds ±20.0%) and the specimen should be rejected in the regression analysis. The rejected calibration specimens should be less than 25% and each calibration curve should contain at least 6 calibration specimens that meet the acceptance criteria. If the lower and upper limits of quantification calibration specimens need to be rejected, the upper and lower limits of quantification for the analytical batch will be raised and lowered accordingly.
Plasma concentrations were processed using the non-compartmental model of WinNonlin™ Version 6.3 (Pharsight, Mountain View, CA) pharmacokinetic software, and pharmacokinetic parameters were calculated using the linear-log trapezoidal method. The pharmacokinetic parameters to be calculated include but are not limited to (data permitting) T1/2, Vdss, CL, AUC0-24 h of IV group; Cmax, Tmax, AUC0-24 h, oral bioavailability (F %) of PO group.
The relevant pharmacokinetic parameters of the embodiment of the present disclosure in mice intravenously injected at a dose of 1 mg/Kg and intragastrically administered at a dose of 3 mg/Kg are shown in Table 5 below.

A427 cells = test: In vitro anti-proliferation assay of A427 cells (KRAS G12D); assay type: cell-based; settings: Homo sapiens, A-427, 336 h; A427 cells in agarose gel, 14 days, Almar blue; read-out: IC50, inhibitory activity on the proliferation of A427 cells
Excerpt: as §1
EMEM culture medium, fetal bovine serum, penicillin/streptomycin antibiotics were purchased from Wisent, and low melting point agarose was purchased from Sigma. Almar blue reagent was purchased from Invitrogen. A427 cell line was purchased from Nanjing Cobioer Biotechnology Co., Ltd. Envision multi-label analyzer (PerkinElmer).
• 1) A427 cells were planted in a 96-well U-shaped plate, and the low melting point agarose was first prepared into a 2% mother solution. When used, the agarose mother solution was first heated in a microwave oven to completely melt, and then placed in a 42° C. water bath to keep the agarose in a liquid state. The gel was added to a serum-containing medium to prepare a gel concentration of 0.6% as the base gel, and spread into a 96-well U-shaped plate at 50 μL per well. After the base gel was solidified, 2% gel was added to a cell-containing medium to prepare a gel concentration of 0.4% of cell-containing top gel with a cell density of 4×10^4 cells/mL, which was added to a 96-well U-shaped plate spread with base gel at 75 μL per well with a cell density of 3000 cells per well. After the top gel was solidified, the cell plate was incubated overnight in a CO2 incubator. • 2) On the day of adding the compounds, 85 μL of liquid medium was added to the 96-well U-shaped plate in which the cells were spread. The compounds to be tested were diluted 3-fold with a row gun to the ninth concentration, that is, from 6 mM to 0.9 μM, and a double-duplication experiment was set up. 97 μL of culture medium was added to a middle plate, and then 2.5 μL of gradient diluted compound per well was transferred to the middle plate according to the corresponding position. After being thoroughly mixed, 40 μL per well was transferred to the cell plate. The concentration range of the compound transferred to the cell plate was 30 μM to 4.5 nM. […] A multi-label analyzer was used for reading. […]

[3] = po, intragastric administration, 3 mg/Kg

SMILES | IC50 [1] [nM] | IC50 (A427 cells) [nM] | other results
C=CC(Nc1nc(C)nc2cc(=O)n(C3CCOCC3)cc12)c1cc(N)cc(C(F)(F)F)c1 (stereo not shown) [Compound 1] | 32 | – | –
C=CC(Nc1nc(C)nc2cc(=O)n(C3(C)CCOC3)cc12)c1cc(N)cc(C(F)(F)F)c1 (stereo not shown) [Compound 2] | 26 | – | –
C=CC(Nc1nc(C)nc2cc(=O)n(C3(CF)CC3)cc12)c1cc(N)cc(C(F)(F)F)c1 (stereo not shown) [Compound 3] | 25 | – | –
C=CC(Nc1nc(C)nc2cc(=O)n(C34CCC(O)(CC3)CC4)cc12)c1cc(N)cc(C(F)(F)F)c1 (stereo not shown) [Compound 4] | 21 | – | –
C=C[C@@H](Nc1nc(C)nc2cc(=O)n(C3(C(F)F)CC3)cc12)c1cc(C(F)(F)CO)cs1 [Compound 7] | 13 | – | –
C=C[C@@H](Nc1nc(C)nc2cc(=O)n(C3(C(F)F)CC3)cc12)c1cccc(C(F)F)c1F [Compound 8] | – | ≤ 100 | clearance ([2]; intravenous injection, 1 mg/Kg): 30.5 mL/min/kg; half-life ([2]; intravenous injection, 1 mg/Kg): 40.2 min; AUC(0-t) ([2]; intravenous injection, 1 mg/Kg): 1.77 µM·h; Vd ([2]; intravenous injection, 1 mg/Kg, read-out: Vdss): 1.84 L/kg; bioavailability ([2]; oral, intragastric 3 mg/Kg vs intravenous 1 mg/Kg, read-out: F % (oral bioavailability)): 109%; Cmax [2, 3]: 1380 nM; Tmax [2, 3]: 60 min; AUC(0-t) [2, 3]: 4.11 µM·h
C=C[C@@H](Nc1nc(C)nc2cc(=O)n(C3(C)CCN(C(C)=O)C3)cc12)c1cccc(C(F)F)c1F (stereo partly shown) [Compound 13] | – | ≤ 100 | –
C=C[C@@H](Nc1nc(C)nc2cc(=O)n(C3(C(F)F)CCN(C(C)=O)C3)cc12)c1cccc(C(F)F)c1F (stereo partly shown) [Compound 15] | – | ≤ 100 | –
